Laboratory results published in ChEMBL document CHEMBL4196035, “Discovery and optimization of ATX inhibitors via modeling, synthesis and biological evaluation” (Eur J Med Chem, 2018).

Columns and labels:
Autotaxin [1] = molecular target: T1, Autotaxin (Homo sapiens, UniProt Q13822); assay: Inhibition of human ENPP2 using FS3 as substrate measured every 5 mins for 30 mins by fluorescence assay
Autotaxin [2] = molecular target: T1, Autotaxin; assay: Inhibition of human ENPP2 using bis-pNPP as substrate measured every 10 secs for 10 mins by spectrophotometric assay
[3] = AUC in Sprague-Dawley rat at 2 mg/kg, iv administered as single bolus dose by HPLC-MS/MS analysis; type: ADME, organism-based; settings: in vivo
[4] = Volume of distribution at steady state in Sprague-Dawley rat at 10 mg/kg, iv administered as single bolus dose by HPLC-MS/MS analysis; type: ADME, organism-based; settings: in vivo, read-out: Vdss
[5] = Tmax in Sprague-Dawley rat at 2 mg/kg, iv administered as single bolus dose by HPLC-MS/MS analysis; type: ADME, organism-based; settings: in vivo
Autotaxin [6] = molecular target: T1, Autotaxin; assay: Inhibition of ENPP2 in human plasma using LPC as substrate preincubated for 15 mins followed by substrate addition measured after 3 hrs by LC-MS/MS analysis
[7] = Metabolic stability in Sprague-Dawley rat liver microsomes assessed as parent compound remaining at 5 uM preincubated for 10 mins followed by NADPH addition measured after 60 mins by LC-MS/MS analysis; type: ADME, microsome; settings: read-out: Stability
[8] = Tmax in Sprague-Dawley rat at 10 mg/kg, iv administered as single bolus dose by HPLC-MS/MS analysis; type: ADME, organism-based; settings: in vivo
Rattus norvegicus [9] = assay: Dose normalized Cmax in Sprague-Dawley rat at 10 mg/kg, iv administered as single bolus dose by HPLC-MS/MS analysis; type: ADME, organism-based; settings: in vivo
Autotaxin [10] = molecular target: T1, Autotaxin; assay: Inhibition of ENPP2 in human SKHEP1 cells using LPC as substrate preincubated for 15 mins followed by substrate addition measured after 3 hrs by LC-MS/MS analysis; type: cell-based
Rattus norvegicus [11] = assay: Dose normalized Cmax in Sprague-Dawley rat at 20 mg/kg, iv administered as single bolus dose by HPLC-MS/MS analysis; type: ADME, organism-based; settings: in vivo
[12] = Clearance in Sprague-Dawley rat at 20 mg/kg, iv administered as single bolus dose by HPLC-MS/MS analysis; type: ADME, organism-based; settings: in vivo
[13] = Volume of distribution at steady state in Sprague-Dawley rat at 2 mg/kg, iv administered as single bolus dose by HPLC-MS/MS analysis; type: ADME, organism-based; settings: in vivo, read-out: Vdss
[14] = Tmax in Sprague-Dawley rat at 20 mg/kg, iv administered as single bolus dose by HPLC-MS/MS analysis; type: ADME, organism-based; settings: in vivo
Rattus norvegicus [15] = assay: Dose normalized Cmax in Sprague-Dawley rat at 2 mg/kg, iv administered as single bolus dose by HPLC-MS/MS analysis; type: ADME, organism-based; settings: in vivo
[16] = Half life in Sprague-Dawley rat liver microsomes at 5 uM preincubated for 10 mins followed by NADPH addition measured up to 60 mins by LC-MS/MS analysis; type: ADME, microsome
[17] = Clearance in Sprague-Dawley rat at 2 mg/kg, iv administered as single bolus dose by HPLC-MS/MS analysis; type: ADME, organism-based; settings: in vivo
Autotaxin [18] = molecular target: T1, Autotaxin; assay: Inhibition of ENPP2 in human A2058 cells using LPC as substrate preincubated for 15 mins followed by substrate addition measured after 3 hrs by LC-MS/MS analysis; type: cell-based
[19] = Terminal half life in Sprague-Dawley rat at 2 mg/kg, iv administered as single bolus dose by HPLC-MS/MS analysis; type: ADME, organism-based; settings: in vivo, read-out: beta t1/2 (converted)
[20] = Cmax in Sprague-Dawley rat at 20 mg/kg, iv administered as single bolus dose by HPLC-MS/MS analysis; type: ADME, organism-based; parameters: dose 20 mg/kg, route intravenous; settings: in vivo
Rattus norvegicus [21] = assay: Dose normalized AUC in Sprague-Dawley rat at 20 mg/kg, iv administered as single bolus dose by HPLC-MS/MS analysis; type: ADME, organism-based; settings: in vivo
[22] = Volume of distribution at steady state in Sprague-Dawley rat at 20 mg/kg, iv administered as single bolus dose by HPLC-MS/MS analysis; type: ADME, organism-based; settings: in vivo, read-out: Vdss
[23] = Metabolic stability in human liver microsomes assessed as parent compound remaining at 5 uM preincubated for 10 mins followed by NADPH addition measured after 60 mins by LC-MS/MS analysis; type: ADME, microsome; settings: read-out: Stability
[24] = AUC in Sprague-Dawley rat at 20 mg/kg, iv administered as single bolus dose by HPLC-MS/MS analysis; type: ADME, organism-based; settings: in vivo
[25] = Half life in human liver microsomes at 5 uM preincubated for 10 mins followed by NADPH addition measured up to 60 mins by LC-MS/MS analysis; type: ADME, microsome
[26] = Cmax in Sprague-Dawley rat at 2 mg/kg, iv administered as single bolus dose by HPLC-MS/MS analysis; type: ADME, organism-based; parameters: dose 2 mg/kg, route intravenous; settings: in vivo
[27] = Clearance in Sprague-Dawley rat at 10 mg/kg, iv administered as single bolus dose by HPLC-MS/MS analysis; type: ADME, organism-based; settings: in vivo
Rattus norvegicus [28] = assay: Dose normalized AUC in Sprague-Dawley rat at 2 mg/kg, iv administered as single bolus dose by HPLC-MS/MS analysis; type: ADME, organism-based; settings: in vivo
[29] = Cmax in Sprague-Dawley rat at 10 mg/kg, iv administered as single bolus dose by HPLC-MS/MS analysis; type: ADME, organism-based; parameters: dose 10 mg/kg, route intravenous; settings: in vivo
[30] = Terminal half life in Sprague-Dawley rat at 10 mg/kg, iv administered as single bolus dose by HPLC-MS/MS analysis; type: ADME, organism-based; settings: in vivo, read-out: beta t1/2 (converted)
Rattus norvegicus [31] = assay: Dose normalized AUC in Sprague-Dawley rat at 10 mg/kg, iv administered as single bolus dose by HPLC-MS/MS analysis; type: ADME, organism-based; settings: in vivo
[32] = Terminal half life in Sprague-Dawley rat at 20 mg/kg, iv administered as single bolus dose by HPLC-MS/MS analysis; type: ADME, organism-based; settings: in vivo, read-out: beta t1/2 (converted)
[33] = AUC in Sprague-Dawley rat at 10 mg/kg, iv administered as single bolus dose by HPLC-MS/MS analysis; type: ADME, organism-based; settings: in vivo

`O=C(Nc1ccc(CP(=O)(O)O)cc1)C1CCN(C(=O)OCc2ccccc2F)CC1` showed an IC50 (Autotaxin [1]) of 7.13 nM and an IC50 (Autotaxin [2]) of 453 nM.

Work on `O=C(O)Cc1ccc(NC(=O)C2CCN(C(=O)OCc3cc(Cl)cc(Cl)c3)CC2)cc1` yielded an IC50 (Autotaxin [1]) of 8.44 nM and an IC50 (Autotaxin [2]) of 439 nM.

`NS(=O)(=O)Nc1ccc(NC(=O)C2CCN(C(=O)OCc3cc(Cl)cc(Cl)c3)CC2)cc1` gave an IC50 (Autotaxin [1]) of 8.9 nM and an IC50 (Autotaxin [2]) of 250 nM.

`O=C(NC1CCN(C(=O)OCc2cc(Cl)cc(Cl)c2)CC1)c1ccc(CP(=O)(O)O)cc1` showed an IC50 (Autotaxin [1]) of 1.36 nM and an IC50 (Autotaxin [2]) of 5.22 nM.

Molecule `O=C(Nc1nc(CP(=O)(O)O)cs1)C1CCN(C(=O)OCc2cc(Cl)cc(Cl)c2)CC1` has an IC50 (Autotaxin [1]) of 1.75 nM and an IC50 (Autotaxin [2]) of 26.5 nM.

Molecule `O=C(Nc1ccc(CP(=O)(O)O)cc1)C1CCN(C(=O)OCc2ccccc2Cl)CC1` has an IC50 (Autotaxin [1]) of 3.29 nM and an IC50 (Autotaxin [2]) of 213 nM.

Molecule `O=C(Nc1ccc(CP(=O)(O)O)cc1)C1CCN(C(=O)OCc2cccc(Cl)c2)CC1` has an IC50 (Autotaxin [1]) of 1.79 nM and an IC50 (Autotaxin [2]) of 39.6 nM.

Molecule `O=C(Nc1ccc(CP(=O)(O)O)cc1)C1CCN(C(=O)OCc2ccc(OC(F)(F)F)cc2F)CC1` has an IC50 (Autotaxin [1]) of 1.67 nM and an IC50 (Autotaxin [2]) of 2.78 nM.

With `O=C(Nc1ccc(CP(=O)(O)O)cc1)C1CCN(C(=O)OCc2ccc(OC(F)(F)F)cc2)CC1` the IC50 (Autotaxin [1]) was 1.97 nM and the IC50 (Autotaxin [2]) was 3.12 nM.

Work on `O=C(Nc1ccc(CP(=O)(O)O)cc1)C1CCN(C(=O)OCc2cc(Cl)cc(Cl)c2)CC1` yielded an AUC [3] of 3050 ng·h/mL, a Vd [4] of 0.33 L/kg and a Tmax [5] of 1.2 min. The IC50 (Autotaxin [6]) was 136 nM, the remaining at 1 h, 5 µM [7] was over 99.9% and the Tmax [8] was 1.2 min. For the same molecule, the Cmax/dose (Rattus norvegicus [9]) was 11.7 kg/L, the IC50 (Autotaxin [1]) was 1.23 nM and the IC50 (Autotaxin [10]) was 7.9 nM. For the same molecule, the Cmax/dose (Rattus norvegicus [11]) was 9.98 kg/L, the clearance [12] was 12.2 mL/min/kg and the Vd [13] was 0.15 L/kg. For the same molecule, the Tmax [14] was 1.2 min, the Cmax/dose (Rattus norvegicus [15]) was 16.6 kg/L and the half-life at 5 µM [16] was over 60 min. For the same molecule, the clearance [17] was 11.3 mL/min/kg, the IC50 (Autotaxin [18]) was 1.3 nM and the half-life [19] was 17.4 min. It also gave a Cmax [20] of 200 µg/mL, an AUC/dose (Rattus norvegicus [21]) of 1.35 kg·h/L and a Vd [22] of 2.24 L/kg. The remaining at 1 h, 5 µM [23] was over 99.9%, the AUC [24] was 27000 ng·h/mL and the IC50 (Autotaxin [2]) was 2.18 nM. For the same molecule, the half-life at 5 µM [25] was over 60 min, the Cmax [26] was 33.1 µg/mL and the clearance [27] was 13.3 mL/min/kg. For the same molecule, the AUC/dose (Rattus norvegicus [28]) was 1.53 kg·h/L, the Cmax [29] was 117 µg/mL and the half-life [30] was 42.6 min. For the same molecule, the AUC/dose (Rattus norvegicus [31]) was 1.27 kg·h/L, the half-life [32] was 245 min and the AUC [33] was 12700 ng·h/mL.

In the case of `O=C(Nc1ccc(CP(=O)(O)O)cc1)C1CCN(C(=O)OCc2ccccc2)CC1`, the IC50 (Autotaxin [1]) is reported as 7.17 nM and the IC50 (Autotaxin [2]) is reported as 255 nM.

In the case of `O=C(NC1CCN(C(=O)OCc2cc(Cl)cc(Cl)c2)C1)c1nc(CP(=O)(O)O)cs1` (centres undefined), the IC50 (Autotaxin [1]) is reported as 3.71 nM and the IC50 (Autotaxin [2]) is reported as 54.7 nM.

With `NS(=O)(=O)Cc1ccc(NC(=O)C2CCN(C(=O)OCc3cc(Cl)cc(Cl)c3)CC2)cc1` the IC50 (Autotaxin [1]) was 4.62 nM and the IC50 (Autotaxin [2]) was 73.5 nM.

In the case of `O=C(NO)c1ccc(NC(=O)C2CCN(C(=O)OCc3cc(Cl)cc(Cl)c3)CC2)cc1`, the IC50 (Autotaxin [1]) is reported as 18.7 nM and the IC50 (Autotaxin [2]) is reported as 496 nM.
